Measurements taken from PubChem BioAssay (NCI).
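Test compounds were applied to cells in 96-well plates for 48 hours at 5 doses. TGI: total growth inhibition.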

What was measured:
Experiment in all cases: NCI anticancer screen, dose series, 48 h
NCI/ADR-RES ovarian = tested on: NCI/ADR-RES ovarian
SNB-19 CNS = tested on: SNB-19 CNS
SR leukemia = tested on: SR leukemia
DMS 273 small cell lung = tested on: DMS 273 small cell lung
HOP-18 NSCLC = tested on: HOP-18 NSCLC
SNB-78 CNS = tested on: SNB-78 CNS
DLD-1 colon = tested on: DLD-1 colon
M19-MEL melanoma = tested on: M19-MEL melanoma
LXFL 529 NSCLC = tested on: LXFL 529 NSCLC
KM20L2 colon = tested on: KM20L2 colon
DMS 114 small cell lung = tested on: DMS 114 small cell lung

| Compound | TGI (NCI/ADR-RES ovarian) | TGI (SNB-19 CNS) | TGI (SR leukemia) | also measured |
| --- | --- | --- | --- | --- |
| Cc1cccc(NC(=O)O/N=C(\Cl)C(C)C)c1 | 38.4 µM | 38.9 µM | 4.4 µM |  |
| CCOC(=O)c1nc2ccccc2nc1NCc1ccc(OC)c(OC)c1 | > 100 µM |  | > 100 µM |  |
| Cc1c[nH]c(C(=O)O)c1-c1cccn1-c1ccc(Cl)cc1[N+](=O)[O-] | > 100 µM |  | > 100 µM |  |
| COc1ccc2c(c1)c1c(n2CCN2CCOCC2)-c2cccc(OC)c2CC1 | > 100 µM |  | 35.3 µM |  |
| CCOC(=O)C(C)Sc1nnc(COc2ccc(Cl)cc2)n1-c1ccccc1 (configuration not stated) |  | 40.1 µM |  | TGI (DMS 273 small cell lung): 29.9 µM; TGI (HOP-18 NSCLC): > 100 µM; TGI (SNB-78 CNS): 95.2 µM; TGI (DLD-1 colon): 35.1 µM; TGI (M19-MEL melanoma): 34.9 µM; TGI (LXFL 529 NSCLC): 30.4 µM; TGI (KM20L2 colon): 33 µM |
| C[C@@H]1[C@H](O)CC2=C(CC[C@@H](O)C2(C)C)[C@@]1(CO)CCc1ccoc1 | > 50 µM | > 50 µM | > 50 µM |  |
| CCCN(CCC)C(=S)N/N=C(/C)c1ccccc1O | 5.57 µM | > 100 µM | 8.92 µM |  |
| CC(=O)OC1OC(c2ccoc2)C[C@@]12C1CCC3O[C@]3(C)[C@]1(C)[C@H](OC(C)=O)[C@H](OC(C)=O)[C@H]2C (some centres not stated) | > 37.5 µM | > 37.5 µM | > 37.5 µM |  |
| O=C(c1ccco1)N(C(=S)N1CCN(c2ccccc2)CC1)C1CCCCC1 |  | > 100 µM | > 100 µM | TGI (DMS 273 small cell lung): > 100 µM; TGI (HOP-18 NSCLC): > 100 µM; TGI (SNB-78 CNS): > 100 µM; TGI (DLD-1 colon): > 100 µM; TGI (M19-MEL melanoma): > 100 µM; TGI (LXFL 529 NSCLC): > 100 µM; TGI (KM20L2 colon): > 100 µM; TGI (DMS 114 small cell lung): > 100 µM |
| N#CCCN(CCC#N)c1ccc(C(N=Nc2ccc(Cl)cc2)=Nc2ccccc2)cc1 | 24.2 µM | 25 µM | > 100 µM |  |
| Cc1cc(S(=O)(=O)Nc2nnc3c4ccccc4cnn23)c(S)cc1Cl | > 100 µM | > 88.9 µM | > 100 µM |  |
| COC(=O)[C@H](Cc1ccccc1)NC(=O)N(CCC#N)CCCCN(CCC#N)C(=O)N[C@@H](Cc1ccccc1)C(=O)OC | > 100 µM | > 100 µM |  |  |
| O=C(O)Cc1ccc(Nc2nc3ccccc3nc2C(=O)O)cc1 | > 100 µM | > 100 µM | > 100 µM |  |
| Cc1ccc(/C=C/C(=N/NC(=O)N/N=C(/C=C/c2ccc(C)cc2)C(C)C)C(C)C)cc1 | > 10 µM | > 10 µM | > 10 µM |  |
| COc1cccc2c1C1(O)C2CCCCCCCCCC12OCCCO2 (configuration not stated) | > 100 µM | > 100 µM | 35.6 µM | TGI (DMS 273 small cell lung): > 100 µM; TGI (HOP-18 NSCLC): > 100 µM; TGI (SNB-78 CNS): > 100 µM; TGI (DLD-1 colon): > 100 µM; TGI (LXFL 529 NSCLC): > 100 µM; TGI (KM20L2 colon): > 100 µM; TGI (DMS 114 small cell lung): > 100 µM |
| C=C1CCCC(C)(C)[C@H]1C/C=C1\CCOC1=O | 26.8 µM | 30.7 µM | > 100 µM |  |

| Compound | TGI (NCI/ADR-RES ovarian) | TGI (SNB-19 CNS) | TGI (SR leukemia) | also measured |
| --- | --- | --- | --- | --- |
| O/N=C(/C(Cl)=C(Cl)Cl)C(Cl)Cl | 73 µM | > 100 µM | 26.7 µM |  |
| [N-]=[N+]=NC1(c2ccccc2)C(=O)C(Cl)=C(c2ccccc2)N(c2ccccc2)C1=O (configuration not stated) |  | > 100 µM | > 100 µM | TGI (DMS 273 small cell lung): > 100 µM; TGI (HOP-18 NSCLC): > 100 µM; TGI (SNB-78 CNS): > 100 µM; TGI (DLD-1 colon): > 100 µM; TGI (M19-MEL melanoma): > 100 µM; TGI (LXFL 529 NSCLC): > 100 µM; TGI (KM20L2 colon): > 100 µM; TGI (DMS 114 small cell lung): > 100 µM |
| Cc1c2n(c3ccccc13)S(=O)(=O)c1ccccc1-2 | > 100 µM | 46.9 µM | > 100 µM |  |
| O=C1c2c(O)cc(O)cc2C(C2OC(CO)C(O)C(O)C2O)c2cc(CO)cc(O)c21 (configuration not stated) | > 100 µM | > 100 µM | > 100 µM |  |
| CCC(=O)NI1OC(=O)c2ccccc21 | > 100 µM |  | > 100 µM |  |
| CNCCCNC(=S)Cn1cc(C)c(=O)[nH]c1=O | > 100 µM | > 100 µM | > 100 µM |  |
| O=C(CC(O)(C(F)(F)F)C(F)(F)Cl)CC(O)(C(F)(F)F)C(F)(F)Cl (configuration not stated) | 9.5 µM | > 10 µM | > 10 µM |  |
| Cc1csc(NNC(N)=O)n1 | > 100 µM | > 100 µM | > 100 µM |  |
| CC(=O)c1c(SCCN2CCOCC2)n(-c2ccccc2)c(=S)n(-c2ccccc2)c1=O | > 100 µM | > 55.2 µM | > 100 µM |  |
| NC(=O)CN1CC(C2=C(O)CN(CC(N)=O)C2=O)=CC1=O | > 100 µM | > 100 µM | > 100 µM |  |
| O=c1[nH]nc(-c2ccccc2)n1/N=C/c1ccco1 | > 100 µM | > 100 µM | > 100 µM |  |
| O=[N+]([O-])C1=Cc2cc(Cl)ccc2OC1c1cccc2ccccc12 (configuration not stated) | > 22.3 µM | 3.04 µM | 2.07 µM |  |
| COC(=O)c1c(C)[nH]c2c1C(=O)C(=O)c1nc(C)c(C)nc1-2 | 78.1 µM | 27.4 µM | 44.9 µM |  |
| CC(=O)N1c2ccccc2C2=NN(C)C(=N)SC21 (configuration not stated) | > 100 µM | > 100 µM | > 100 µM |  |
| O=C(O)c1nc2ccc(Cl)cc2[nH]c1=O | > 100 µM | > 100 µM | > 100 µM |  |
| CCOC(=O)/C(=C\NC(C)(C)C)c1nc2ccccc2[nH]1 | 92.1 µM | > 100 µM | 28.3 µM |  |
